From patent US8729055B2, “Ursolic acid derivative and pharmaceutical composition thereof” (Kaohsiung Medical University, priority 2010, dated 2014)

How the values were obtained:
[1] = system: NTUB1 cells (human bladder cancer cell line); assay: MTT cytotoxicity assay against NTUB1 cells; type: cell-based
Experimental: In the present embodiment, cell culture and MTT assay is used for cell viability/proliferation. NTUB1, a human bladder cancer cell line, is established from a high-grade bladder cancer. […] The cells are cultured at 37° C. in a humidified atmosphere containing 5% CO2. […] Briefly, the cells are plated at a density of 1800 cells/well in 96-well plates and incubated at 37° C. overnight before drug exposure. Cells are then cultured in the presence of graded concentrations of the test compound with or without various concentrations of cisplatin (Pharmacia & Upjohn, Milan, Italy) at 37° C. for 72 h. At the end of the culture period, 50 μL of MTT (2 mg/mL in PBS) is added to each well and allowed to react for 3 h. Following centrifugation of plates at 1000 g for 10 min, media are removed and 150 μL DMSO are added to each well. The proportions of surviving cells are determined by absorbance spectrometry at 540 nm using […]) microplate reader. The cell viability is expressed as a percentage to the viable cells of control culture condition. The IC50s of each group are calculated by the […] analysis and presented as mean±standard deviation (SD). […] In Table 1, data are presented as mean±SD (n=5). […] The control cells are treated with culture medium containing 0.1% DMSO. Cisplatin is used as a positive control.

[2] = system: accumulation of NO2−; assay: Experiment A: accumulation of NO2− (Griess reaction); type: cell-based, rat; settings: inhibition of accumulation of NO2−
Experimental: (§1) This example illustrates the anti-inflammatory activities of compounds 5, 7-11, 20 and 21. The anti-inflammatory activities of compounds 5, 7-11, 20 and 21 are studied in vitro for their inhibitory effects on chemical mediators released from neutrophils, mast cells or macrophages of rat.
(§2) Please refer to Table 2, which illustrates the inhibitory effects of compounds 5, 7-11, 20 and 21 on the accumulation of NO2^− (Experiment A), superoxide anion formation (n mol/10^6 cells/30 min) from rat neutrophils stimulated with PMA (Experiment B), and the release of β-glucuronidase from rat peritoneal mast cells stimulated with compound 48/80 (Experiment C). In Table 2, when 50% inhibition could not be reached at the highest concentration, the percentage of inhibition at 30 μM is given.
In the Experiment A, Nitric oxide (NO) in the cell medium is determined by the Griess reaction, and N-(3-aminomethyl)benzylamide (1400 W) is used as a positive control.

[3] = system: rat peritoneal mast cells stimulated with compound 48/80; assay: Experiment C: release of β-glucuronidase from rat peritoneal mast cells stimulated with compound 48/80; type: cell-based; settings: 30 μM; given when 50% inhibition not reached
Experimental: as §1, §2
In the Experiment C, Heparinized Tyrode's solution is injected into the peritoneal cavity of exsanguinated rat (Sprague-Dawley, 250-300 g). After abdominal massage, cells in the peritoneal fluid are harvested and then separated in 38% bovine serum albumin (BSA) in glucose-free Tyrode's solution. […] Fifteen min after the addition of compound 48/80 ([…]), β-glucuronidase (phenolphthalein-β-glucuronide as substrate, 550 nm) in the supernatant is determined. The total content of β-glucuronidase is measured after treatment of the cell suspension with Triton X-100, and the percentage release is calculated. […]

[4] = system: microtubule assembly in NTUB1 cells; assay: Microtubule assembly by indirect immunofluorescence staining in NTUB1 cells; type: cell-based, human; settings: 10 nM taxol, FIG. 5(B)
Experimental: All inhibition of tubulin polymerization has been implicated in G2/M phase cell cycle arrest in various cancer cell lines. Accordingly, whether treatment of cells with 20 μM compound 23 for 48 h affects in vivo microtubular architecture is investigated in the present example. Microtubule assembly is analyzed by indirect immunofluorescence staining using an anti-tubulin antibody (Santa Cruz Biotechnology, Santa Cruz, Calif., USA).
NTUB1 cells plated on coverslips are treated with no compound as control, 10 nM taxol, 50 μM compound 23 for 24 h. After treatment, cells are fixed with 2% formaldehyde/PBS for 20 min, washed with PBS, and cold methanol (−20° C.) for 3 min. After washing with PBS, cells are added anti-α-tubulin monoclonal antibody (Sigma, Co) in PBS and incubated for 3 h at room temperature. Then cells are washed with PBS and reincubated with Rodamine-conjugated secondary antibody (Sigma, Co) in dark room for 1 h at room temperature. After being washed with PBS, coverslips are mounted with 80% glycerol in PBS and examined with Axioskop 2 plus fluorescence microscope.
Please refer to FIGS. 5(A) to 5(C), which are diagrams showing the effects of taxol and compound 23 on microtubule assembly, wherein the cellular microtubules are observed by Axioskop 2 plus fluorescence microscope.

Compound: C=C(C)[C@@H]1CC[C@]2(C)[C@H](CC=C3[C@@H]4[C@@H](C)[C@H](C)CC[C@]4(C(=O)O)CC[C@]32C)[C@@]1(C)CCC(=O)OC [Compound 21, Methyl 3,4-seco-ursan-4(23), 12-dien-28-oic 3-oat]
- IC50 ([1]; NTUB1 cells, MTT, 72 h, mean±SD (n=5)): > 30 µM
- % of viability at the highest concentration ([1]; NTUB1 cells, given when 50% inhibition not reached at the highest concentration (30 μM)): 62.77%
- cytotoxic activity against NTUB1 cells, in words ([1]; comparison with the parent compound, from Table 1): weakens cytotoxic activities
- IC50 [2]: 15.6 ± 2.5 µM
- percentage of inhibition at 30 μM, C β-glucuronidase [3]: 29.3 ± 2.1%

Compound: CC(=O)O[C@H]1C(=O)[C@@]2(C)[C@H]([C@H](OC(=O)c3ccccc3)[C@]3(O)C[C@H](OC(=O)[C@H](O)[C@@H](NC(=O)c4ccccc4)c4ccccc4)C(C)=C1C3(C)C)[C@]1(OC(C)=O)CO[C@@H]1C[C@@H]2O [taxol]
- effect on microtubule assembly [4]: distinctive microtubule bundle
